Measured values taken from ChEMBL document CHEMBL4359894, “Novel class of 7-Oxabicyclo[2.2.1]heptene sulfonamides with long alkyl chains displaying improved estrogen receptor α degradation activity” (Eur J Med Chem, 2019).

Key:
[1] = molecular target: T1, Estrogen receptor (Homo sapiens) (UniProt P03372); test: Binding affinity to ERalpha (unknown origin) by competitive fluorometric receptor binding assay relative to estradiol
T1 sequence (whole entry): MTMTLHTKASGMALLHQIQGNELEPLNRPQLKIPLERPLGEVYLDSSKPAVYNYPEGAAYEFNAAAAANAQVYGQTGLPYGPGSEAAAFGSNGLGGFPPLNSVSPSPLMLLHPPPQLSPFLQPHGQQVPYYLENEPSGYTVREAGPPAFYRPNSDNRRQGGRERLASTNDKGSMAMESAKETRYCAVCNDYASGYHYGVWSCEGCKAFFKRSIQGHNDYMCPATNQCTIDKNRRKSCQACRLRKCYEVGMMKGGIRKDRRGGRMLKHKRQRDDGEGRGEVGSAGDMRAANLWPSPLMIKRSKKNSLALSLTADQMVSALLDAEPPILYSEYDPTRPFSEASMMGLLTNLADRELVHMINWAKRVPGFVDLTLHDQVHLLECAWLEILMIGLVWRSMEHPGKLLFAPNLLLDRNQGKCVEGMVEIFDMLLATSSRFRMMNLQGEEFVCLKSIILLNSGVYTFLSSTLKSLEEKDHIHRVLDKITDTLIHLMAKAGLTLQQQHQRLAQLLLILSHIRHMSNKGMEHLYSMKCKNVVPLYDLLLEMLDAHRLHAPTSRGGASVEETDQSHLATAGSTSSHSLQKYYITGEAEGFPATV

[2] = molecular target: Estrogen receptor beta (Homo sapiens) (UniProt Q92731); test: Binding affinity to ERbeta (unknown origin) by competitive fluorometric receptor binding assay relative to estradiol
Estrogen receptor beta (Homo sapiens), sequence (Q92731 whole entry): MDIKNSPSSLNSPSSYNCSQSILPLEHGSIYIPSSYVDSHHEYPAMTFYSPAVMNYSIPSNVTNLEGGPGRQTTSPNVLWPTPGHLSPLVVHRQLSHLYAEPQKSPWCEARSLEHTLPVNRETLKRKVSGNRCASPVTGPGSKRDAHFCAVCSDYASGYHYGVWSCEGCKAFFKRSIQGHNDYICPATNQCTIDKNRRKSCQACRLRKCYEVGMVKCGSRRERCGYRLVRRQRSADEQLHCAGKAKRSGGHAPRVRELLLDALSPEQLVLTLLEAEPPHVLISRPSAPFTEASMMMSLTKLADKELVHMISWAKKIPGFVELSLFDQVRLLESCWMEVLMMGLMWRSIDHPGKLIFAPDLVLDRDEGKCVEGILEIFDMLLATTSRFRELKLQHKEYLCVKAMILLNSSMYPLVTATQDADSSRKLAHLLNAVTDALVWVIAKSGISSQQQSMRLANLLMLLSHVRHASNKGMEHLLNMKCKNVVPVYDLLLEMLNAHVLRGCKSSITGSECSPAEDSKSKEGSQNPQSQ

[3] = Therapeutic index, ratio of IC50 for cytotoxicity against human MCF10A cells to IC50 for antiproliferative activity against human MCF7 cells; type: toxicity, cell-based; settings: read-out: Ratio IC50
[4] = test system: MCF7; test: Antiproliferative activity against human MCF7 cell incubated for 72 hrs by MTT assay; type: functional, cell-based; settings: MCF7, 72 h
[5] = test system: MCF-10A; test: Cytotoxicity against human MCF10A cell incubated for 72 hrs by MTT assay; type: cell-based

SMILES	relative binding affinity (RBA) [1]	relative binding affinity (RBA) [2]	IC50 [4] [µM]	selectivity ratio [3]	IC50 [5] [µM]
CCCCCCCCCCOc1ccc(C2=C(c3ccc(O)cc3)[C@H]3O[C@@H]2C[C@@H]3S(=O)(=O)N(CC(F)(F)F)c2ccc(OC)cc2)cc1 (relative stereo)	1.35	0.02	25.3	> 3.9	> 100
CCCCCCCCCCCCOc1ccc(C2=C(c3ccc(O)cc3)[C@H]3C[C@H](S(=O)(=O)N(CC(F)(F)F)c4ccc(OC)cc4)[C@@H]2O3)cc1 (relative stereo)	0.06	0.15	> 100		> 100
CCCCCCCCCCOc1ccc(C2=C(c3ccc(O)cc3)[C@H]3O[C@@H]2C[C@@H]3S(=O)(=O)N(CC(F)(F)F)c2ccc(Cl)cc2)cc1 (relative stereo)	0.57	0.01	21.2	> 4.7	> 100
CCCCCCCCCCCCOc1ccc(C2=C(c3ccc(O)cc3)[C@H]3O[C@@H]2C[C@@H]3S(=O)(=O)N(CC(F)(F)F)c2ccc(OC)cc2)cc1 (relative stereo)	0.32	0.01	86.7	> 1.1	> 100
CCCCCCCCCCOc1ccc(C2=C(c3ccc(O)cc3)[C@H]3C[C@H](S(=O)(=O)N(CC(F)(F)F)c4ccc(Cl)cc4)[C@@H]2O3)cc1 (relative stereo)	0.25	0.11	51.2	> 1.9	> 100
CCCCCCCCOc1ccc(C2=C(c3ccc(O)cc3)[C@H]3C[C@H](S(=O)(=O)N(CC(F)(F)F)c4ccc(Cl)cc4)[C@@H]2O3)cc1 (relative stereo)	2.36	0.04	5.22	> 19.1	> 100

Molecules with a lower IC50 [4], results first:

relative binding affinity (RBA) [1]	relative binding affinity (RBA) [2]	IC50 [4] [µM]	SMILES	selectivity ratio [3]	IC50 [5] [µM]
0.59	0.03	2.72	CCCCCCCCOc1ccc(C2=C(c3ccc(O)cc3)[C@H]3O[C@@H]2C[C@@H]3S(=O)(=O)N(CC(F)(F)F)c2ccc(Cl)cc2)cc1	30.9	84.2
3.12	0.04	1.82	CCCCOc1ccc(C2=C(c3ccc(O)cc3)[C@H]3O[C@@H]2C[C@@H]3S(=O)(=O)N(CC)c2ccccc2)cc1 (relative stereo)	18	32.8
1.13	0.16	3.22	CCCCOc1ccc(C2=C(c3ccc(O)cc3)[C@H]3O[C@@H]2C[C@@H]3S(=O)(=O)N(CC(F)(F)F)c2ccc(Cl)cc2)cc1 (relative stereo)	14.7	47.4
1.03	0.05	1.16	CCCCCCCCOc1ccc(C2=C(c3ccc(O)cc3)[C@H]3O[C@@H]2C[C@@H]3S(=O)(=O)N(CC)c2ccccc2)cc1 (relative stereo)	29.8	34.6
3.49	0.02	1.38	CCCCCCOc1ccc(C2=C(c3ccc(O)cc3)[C@H]3O[C@@H]2C[C@@H]3S(=O)(=O)N(CC(F)(F)F)c2ccc(Cl)cc2)cc1 (relative stereo)	28.7	39.7
1.59	0.15	2.39	CCCCCCCCOc1ccc(C2=C(c3ccc(O)cc3)[C@H]3O[C@@H]2C[C@@H]3S(=O)(=O)N(CC(F)(F)F)c2ccc(OC)cc2)cc1 (relative stereo)	17.9	42.8
